Test results from publication PMC6804193, “Extending the Inhibition Profiles of Coumarin-Based Compounds Against Human Carbonic Anhydrases: Synthesis, Biological, and In Silico Evaluation” (Molecules, 2019).
pKi: −log10 of the molar value. Where two headings read alike, the source gives them in different places.

Assays:
Assay in all cases: stopped-flow CO2 hydrase assay
Type in all cases: biochemical
hCA IX = molecular target: T1, hCA IX (Homo sapiens, UniProt Q16790)
T1 construct: gene CA9; recombinant, obtained in-house
Excerpt: stopped-flow CO2 hydrase assay on hCA IX

hCA II = molecular target: T2, hCA II (Homo sapiens, UniProt P00918)
T2 construct: gene CA2; recombinant, obtained in-house; cytosolic isoform
Excerpt: stopped-flow CO2 hydrase assay on hCA II

hCA XII [1] = molecular target: T3, hCA XII (Homo sapiens, UniProt O43570); conditions: read-out: KI^* (nM) / hCAXII
T3 construct: gene CA12; recombinant, obtained in-house
T3 sequence (O43570 25-354): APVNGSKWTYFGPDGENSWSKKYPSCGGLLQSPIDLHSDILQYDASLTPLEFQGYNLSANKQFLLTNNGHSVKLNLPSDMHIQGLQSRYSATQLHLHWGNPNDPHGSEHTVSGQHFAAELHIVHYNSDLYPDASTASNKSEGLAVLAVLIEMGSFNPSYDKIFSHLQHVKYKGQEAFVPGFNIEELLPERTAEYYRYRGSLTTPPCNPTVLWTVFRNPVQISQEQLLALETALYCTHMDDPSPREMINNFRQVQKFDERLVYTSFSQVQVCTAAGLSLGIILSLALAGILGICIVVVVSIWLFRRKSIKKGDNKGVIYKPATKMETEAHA
Excerpt: stopped-flow CO2 hydrase assay on hCA XII

hCA I = molecular target: T4, hCA I (Homo sapiens, UniProt P00915)
T4 construct: gene CA1; recombinant, obtained in-house; cytosolic isoform
T4 sequence (P00915 2-261): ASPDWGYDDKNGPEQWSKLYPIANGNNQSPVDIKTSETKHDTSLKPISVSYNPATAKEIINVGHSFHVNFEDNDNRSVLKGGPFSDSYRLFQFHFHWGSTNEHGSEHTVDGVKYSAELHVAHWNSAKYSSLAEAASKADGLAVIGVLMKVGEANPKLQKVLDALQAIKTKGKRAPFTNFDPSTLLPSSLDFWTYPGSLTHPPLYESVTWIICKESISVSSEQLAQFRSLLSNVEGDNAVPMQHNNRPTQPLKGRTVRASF
Excerpt: stopped-flow CO2 hydrase assay on hCA I

hCA XII [2] = molecular target: T3, hCA XII; conditions: read-out: KI^* (nM) / hCA II
[3] = CO2 […], […] Hepes pH […] Na2SO4, […] h preincubation at room temperature (prodrug inhibitors)

Row | SMILES | Ki (hCA IX) [nM] | Ki (hCA II) [nM] | Ki (hCA XII [1]) [nM] | pKi (hCA I) | Ki (hCA XII [2]) [nM] | Ki (hCA IX; [3]) [nM] | Ki (hCA II; [3]) [nM] | Ki (hCA XII [1]; [3]) [nM] | pKi (hCA I; [3])
1 | O=C(NN1C(=O)/C(=C/C2=Cc3ccccc3OC2)SC1=S)c1cccnc1 [compound 12, 2H-chromene 12] | 241 | > 10000 | 432 | < 5.00 | – | – | – | – | –
2 | O=c1cc(-c2cc3ccc(O)cc3oc2=O)c2ccc(O)c(O)c2o1 [compound 3, 7,7’,8’-Trihydroxy-2H,2’H-[3,4’-bichromene]-2,2’-dione] | 133 | > 10000 | – | < 5.00 | > 10000 | – | – | – | –
3 | COc1ccc2occ(C3CC(=O)Oc4ccc(C(C)=O)c(O)c43)c(=O)c2c1 (racemic) [compound 8, 3-(6-Acetyl-5-hydroxy-2-oxochroman-4-yl)-6-methoxy-4H-chromen-4-one] | 175 | > 10000 | – | < 5.00 | > 10000 | – | – | – | –
4 | O=C(Nc1ccc2oc(=O)ccc2c1)[C@@H]1CSC2c3ccccc3C(=O)N21 (stereo partly drawn) [compound 11, coumarin 11] | 9.4 | > 10000 | 591 | < 5.00 | – | – | – | – | –
5 | Cc1cc(=O)oc2c(C)c(O)c(C(=O)/C=C/N(C)C)cc12 [compound 10, coumarin 10] | 25.7 | > 10000 | 604 | < 5.00 | – | – | – | – | –
6 | CC(=O)c1ccc2c(c1O)C(c1ccccc1OCc1ccccn1)CC(=O)O2 (racemic) [compound 7, 6-Acetyl-5-hydroxy-4-(2-(pyridin-2-ylmethoxy)phenyl)chroman-2-one] | 139 | > 10000 | – | < 5.00 | > 10000 | – | – | – | –
7 | COc1ccc(C2CC(=O)Oc3ccc(C(C)=O)c(O)c32)cc1OCCc1ccc2c(c1)CCO2 (racemic) [compound 5, 6-Acetyl-4-(3-(2-(2,3-dihydrobenzofuran-5-yl)ethoxy)-4-methoxyphenyl)-5-hydroxychroman-2-one] | 172 | > 10000 | – | < 5.00 | > 10000 | – | – | – | –
8 | CCCc1cc2c(=O)c(-c3ccc4c(c3)OCCO4)coc2cc1OCc1cc(=O)oc2cc(C)cc(C)c12 [compound 9, coumarin 9] | 171 | > 10000 | – | < 5.00 | > 10000 | – | – | – | –
9 | COc1cc(C2CC(=O)Oc3ccc(C(C)=O)c(O)c32)ccc1O (racemic) [compound 6, 6-Acetyl-5-hydroxy-4-(4-hydroxy-3-methoxyphenyl)chroman-2-one] | 189 | > 10000 | – | < 5.00 | > 10000 | – | – | – | –
10 | CCOC(=O)CC(C1=Cc2ccccc2OC1)c1oc(CO)cc(=O)c1O (stereo not drawn) [compound 4, Ethyl 3-(2H-chromen-3-yl)-3-(3-hydroxy-6-(hydroxymethyl)-4-oxo-4H-pyran-2-yl) propanoate] | 243 | > 10000 | 467 | < 5.00 | – | – | – | – | –
11 | Cc1c(O)c(CN(C)C)cc2c(-c3cc4ccccc4oc3=O)cc(=O)oc12 [compound 2, 6’-((Dimethylamino)methyl)-7’-hydroxy-8’-methyl-2H,2’H-[3,4’-bichromene]-2,2’-dione] | 85.6 | > 10000 | – | < 5.00 | > 10000 | – | – | – | –
12 | CC(=NO)c1c(OCc2ccc(Cl)cc2)ccc2c(C)cc(=O)oc12 [compound 1, 7-((4-Chlorobenzyl)oxy)-8-(1-(hydroxyimino)ethyl)-4-methyl-2H-chromen-2-one] | – | – | – | – | – | 49.3 | > 10000 | 558 | < 5.00
